# Source: ChEMBL document CHEMBL4033618, “Covalently linked kanamycin - Ciprofloxacin hybrid antibiotics as a tool to fight bacterial resistance” (Bioorg Med Chem, 2017)
# What was measured:
# [1] = test system: Escherichia coli; assay: Antibacterial activity against kanamycin-resistant Escherichia coli AG100B by double microdilution method; format: functional
# [2] = test system: Escherichia coli; assay: Antibacterial activity against Escherichia coli BL21 by double microdilution method; format: functional
# [3] = test system: Escherichia coli; assay: Antibacterial activity against kanamycin-resistant Escherichia coli AG100A by double microdilution method; format: functional
# [4] = Inhibition of Escherichia coli DNA gyrase using relaxed pBR322 DNA as substrate by agarose gel electrophorosis method; details: read-out: IC50
# [5] = test system: Escherichia coli; assay: Ratio of MIC for aminoglycosides-resistant Escherichia coli BL21 harboring pET11d encode for APH(3')-2b resistance enzyme to MIC for Escherichia coli BL21; format: functional
# [6] = Inhibition of Escherichia coli topoisomerase 4 using supercoiled pBR322 DNA as substrate by agarose gel electrophorosis method; details: read-out: IC50
# [7] = test system: Escherichia coli; assay: Antibacterial activity against aminoglycosides-susceptible Escherichia coli R477-100 by double microdilution method; format: functional
# [8] = test system: Bacillus subtilis; assay: Antibacterial activity against aminoglycosides-susceptible Bacillus subtilis by double microdilution method; format: functional
# [9] = test system: Escherichia coli; assay: Ratio of MIC for aminoglycosides-resistant Escherichia coli BL21 harboring pSF815 encode for bifunctional AAC(6')/APH(2\") resistance enzyme to MIC for Escherichia coli BL21; format: functional
# [10] = test system: Escherichia coli; assay: Antibacterial activity against Escherichia coli XL1 blue harboring pET9d encode for APH(3')-1a resistance enzyme by double microdilution method; format: functional
# [11] = test system: Escherichia coli; assay: Antibacterial activity against aminoglycosides-resistant Escherichia coli BL21 harboring pETSACG1 encode for APH(3')-3a resistance enzyme by double microdilution method; format: functional
# [12] = test system: Escherichia coli; assay: Antibacterial activity against aminoglycosides-resistant Escherichia coli BL21 harboring pET11d encode for APH(3')-2b resistance enzyme by double microdilution method; format: functional
# [13] = test system: Staphylococcus epidermidis; assay: Antibacterial activity against aminoglycosides-susceptible Staphylococcus epidermidis by double microdilution method; format: functional
# [14] = test system: Escherichia coli; assay: Antibacterial activity against aminoglycosides-susceptible Escherichia coli 25922 by double microdilution method; format: functional; details: ATCC 25922
# [15] = test system: Escherichia coli; assay: Ratio of MIC for Escherichia coli XL1 blue harboring pET9d encode for APH(3')-1a resistance enzyme to MIC for Escherichia coli XL1 blue; format: functional
# [16] = test system: Escherichia coli; assay: Antibacterial activity against aminoglycosides-resistant Escherichia coli BL21 harboring pSF815 encode for bifunctional AAC(6')/APH(2\") resistance enzyme by double microdilution method; format: functional
# [17] = test system: Escherichia coli; assay: Inhibition of protein translation in Escherichia coli S30 cell extract using circular DNA with pBESTluc after 60 mins; format: functional; details: Escherichia coli, 1 h; read-out: IC50
# [18] = test system: Escherichia coli; assay: Antibacterial activity against Escherichia coli XL1 blue by double microdilution method; format: functional
# [19] = test system: Escherichia coli; assay: Ratio of MIC for aminoglycosides-resistant Escherichia coli BL21 harboring pETSACG1 encode for APH(3')-3a resistance enzyme to MIC for Escherichia coli BL21; format: functional
# [20] = test system: Escherichia coli; assay: Resistance index, ratio of MIC for Escherichia coli ATCC 35218 in 15th subculture to MIC for Escherichia coli ATCC 35218 in first subculture; format: functional
# [21] = test system: Bacillus spizizenii; assay: Resistance index, ratio of MIC for Bacillus subtilis ATCC 6633 in 15th subculture to MIC for Bacillus subtilis ATCC 6633 in first subculture; format: functional
# [22] = Acute toxicity in iv dosed mouse at pH 6.6 administered for 4 days; format: organism-based; details: in vivo
Compound,MIC [1] [µg/mL],MIC [2] [µg/mL],MIC [3] [µg/mL],Ratio [5],MIC [7] [µg/mL],MIC [8] [µg/mL],Ratio [9],MIC [10] [µg/mL],MIC [11] [µg/mL],MIC [12] [µg/mL],MIC [13] [µg/mL],MIC [14] [µg/mL],Ratio [15],MIC [16] [µg/mL],IC50 [17] [µM],MIC [18] [µg/mL],Ratio [19],further results
NC[C@H]1O[C@H](O[C@H]2[C@H](O)[C@@H](O[C@H]3O[C@H](CO)[C@@H](O)[C@H](N)[C@H]3O)[C@H](NC(=O)CCc3cn(CCN4CCN(c5cc6c(cc5F)c(=O)c(C(=O)O)cn6C5CC5)CC4)nn3)C[C@@H]2N)[C@H](O)[C@@H](O)[C@@H]1O,24,0.8,0.75,2,6,6,2,18,0.6,0.4,18,3,1,0.4,19.2,24,3,IC50 [4]: 9.9 µM; IC50 [6]: > 100 µM
NC[C@H]1O[C@H](O[C@H]2[C@H](O)[C@@H](O[C@H]3O[C@H](CO)[C@@H](O)[C@H](N)[C@H]3O)[C@H](NC(=O)CCc3cn(Cc4cccc(CN5CCN(c6cc7c(cc6F)c(=O)c(C(=O)O)cn7C6CC6)CC5)c4)nn3)C[C@@H]2N)[C@H](O)[C@@H](O)[C@@H]1O,48,0.8,1.5,2,24,9,2,24,1.5,1.5,18,18,2,1.5,–,12,2,–
NC[C@H]1O[C@H](O[C@H]2[C@H](O)[C@@H](O[C@H]3O[C@H](CO)[C@@H](O)[C@H](N)[C@H]3O)[C@H](NCc3cn(Cc4cccc(CN5CCN(c6cc7c(cc6F)c(=O)c(C(=O)O)cn7C6CC6)CC5)c4)nn3)C[C@@H]2N)[C@H](O)[C@@H](O)[C@@H]1O,36,1.5,1.5,1,36,12,1,24,0.8,0.8,18,24,2,0.8,–,12,1,–
NC[C@H]1O[C@H](O[C@H]2[C@H](O)[C@@H](O[C@H]3O[C@H](CO)[C@@H](O)[C@H](N)[C@H]3O)[C@H](NC(=O)CCCc3cn(CC(O)CN4CCN(c5cc6c(cc5F)c(=O)c(C(=O)O)cn6C5CC5)CC4)nn3)C[C@@H]2N)[C@H](O)[C@@H](O)[C@@H]1O (stereo not given in full),–,–,–,–,12,1.5,–,–,–,–,24,6,–,–,–,–,–,–
NC[C@H]1O[C@H](O[C@H]2[C@H](O)[C@@H](O[C@H]3O[C@H](CO)[C@@H](O)[C@H](N)[C@H]3O)[C@H](NCc3cn(Cc4ccc(CN5CCN(c6cc7c(cc6F)c(=O)c(C(=O)O)cn7C6CC6)CC5)cc4)nn3)C[C@@H]2N)[C@H](O)[C@@H](O)[C@@H]1O,12,0.8,0.28,1,6,3,1,3,0.1,0.1,3,6,1,0.1,10.7,3,1,Ratio [20]: 4; Ratio [21]: 4; IC50 [4]: 2.6 µM; IC50 [6]: 7.9 µM
NC[C@H]1O[C@H](O[C@H]2[C@H](O)[C@@H](O[C@H]3O[C@H](CO)[C@@H](O)[C@H](N)[C@H]3O)[C@H](NC(=O)CCc3cn(Cc4ccc(CN5CCN(c6cc7c(cc6F)c(=O)c(C(=O)O)cn7C6CC6)CC5)cc4)nn3)C[C@@H]2N)[C@H](O)[C@@H](O)[C@@H]1O,48,0.8,3,2,36,6,2,24,0.8,1.5,18,24,1,1.5,–,24,1,–
NC[C@H]1O[C@H](O[C@H]2[C@H](O)[C@@H](O[C@H]3O[C@H](CO)[C@@H](O)[C@H](N)[C@H]3O)[C@H](NC(=O)CCc3cn(CC(O)CN4CCN(c5cc6c(cc5F)c(=O)c(C(=O)O)cn6C5CC5)CC4)nn3)C[C@@H]2N)[C@H](O)[C@@H](O)[C@@H]1O (stereo not given in full),24,0.2,1.5,1,12,9,1,24,1.5,1.5,36,6,1,1.5,–,24,1,–
NC[C@@H]1O[C@H](O[C@H]2[C@@H](O)[C@H](O[C@@H]3[C@@H](O)[C@H](N)C[C@H](N)[C@H]3O[C@H]3O[C@H](CN)[C@@H](O)[C@H](O)[C@H]3N)O[C@@H]2CO)[C@H](N)[C@@H](O)[C@@H]1O [FRAMYCETIN],–,–,–,–,–,–,–,–,–,–,–,–,–,–,–,–,–,LD50 at 96 h [22]: 24 mg/kg
NC[C@H]1O[C@H](O[C@H]2[C@H](O)[C@@H](O[C@H]3O[C@H](CO)[C@@H](O)[C@H](N)[C@H]3O)[C@H](NCc3cn(CC(O)CN4CCN(c5cc6c(cc5F)c(=O)c(C(=O)O)cn6C5CC5)CC4)nn3)C[C@@H]2N)[C@H](O)[C@@H](O)[C@@H]1O (stereo not given in full),12,0.09,0.37,1.5,3,1.5,1.5,3,0.3,0.3,6,1.5,1,0.3,1.27,3,1.5,Ratio [20]: 1.33; Ratio [21]: 2; IC50 [4]: 5.9 µM; IC50 [6]: 19.8 µM
NC[C@H]1O[C@H](O[C@H]2[C@H](O)[C@@H](O[C@H]3O[C@H](CO)[C@@H](O)[C@H](N)[C@H]3O)[C@H](NC(=O)CCc3cn(CCOCCN4CCN(c5cc6c(cc5F)c(=O)c(C(=O)O)cn6C5CC5)CC4)nn3)C[C@@H]2N)[C@H](O)[C@@H](O)[C@@H]1O,24,0.8,0.75,1,12,9,1,12,0.8,0.8,24,6,1,0.8,–,12,1,–
NCC[C@H](O)C(=O)N[C@@H]1C[C@H](N)[C@@H](O[C@H]2O[C@H](CN)[C@@H](O)[C@H](O)[C@H]2O)[C@H](O)[C@H]1O[C@H]1O[C@H](CO)[C@@H](O)[C@H](N)[C@H]1O [AMIKACIN],–,–,–,–,–,–,–,–,–,–,–,–,–,–,–,–,–,LD50 at 96 h [22]: 300 mg/kg
NC[C@H]1O[C@H](O[C@H]2[C@H](O)[C@@H](O[C@H]3O[C@H](CO)[C@@H](O)[C@H](N)[C@H]3O)[C@H](NC(=O)CCCc3cn(Cc4ccc(CN5CCN(c6cc7c(cc6F)c(=O)c(C(=O)O)cn7C6CC6)CC5)cc4)nn3)C[C@@H]2N)[C@H](O)[C@@H](O)[C@@H]1O,24,0.8,0.75,1,6,3,1,–,0.8,0.8,6,3,–,0.8,2.19,6,1,–
NC[C@H]1O[C@H](O[C@H]2[C@H](O)[C@@H](O[C@H]3O[C@H](CO)[C@@H](O)[C@H](N)[C@H]3O)[C@H](NCc3cn(CCN4CCN(c5cc6c(cc5F)c(=O)c(C(=O)O)cn6C5CC5)CC4)nn3)C[C@@H]2N)[C@H](O)[C@@H](O)[C@@H]1O,–,0.2,–,–,6,1.5,–,–,–,–,6,3,–,–,8.14,–,–,–
NC[C@H]1O[C@H](O[C@H]2[C@H](O)[C@@H](O[C@H]3O[C@H](CO)[C@@H](O)[C@H](N)[C@H]3O)[C@H](NCc3cn(CCCCCCN4CCN(c5cc6c(cc5F)c(=O)c(C(=O)O)cn6C5CC5)CC4)nn3)C[C@@H]2N)[C@H](O)[C@@H](O)[C@@H]1O,24,0.8,1.5,1,12,6,1,12,0.8,0.8,24,12,1,0.8,6.46,12,1,–
